We go through 17 compounds from patent US8101612B2, “Phthalazine compounds and methods of use” (Amgen Inc., priority 2006, dated 2012).

Structures are written as SMILES.

The test system of assay [1] is production of TNF by monocytes activated with bacterial lipopolysaccharide (LPS). In words: Lipopolysaccharide-activated monocyte TNF production assay (whole blood monocyte assay, LPS induced TNF release). Particulars: Homo sapiens. It is filed as cell-based. How it is done:
Lipopolysaccharide-Activated Monocyte TNF Production Assay
Test compounds were evaluated in vitro for the ability to inhibit the production of TNF by monocytes activated with bacterial lipopolysaccharide (LPS). Fresh residual source leukocytes (a byproduct of plateletpheresis) were obtained from a local blood bank, and peripheral blood mononuclear cells (PBMCs) were isolated by density gradient centrifugation on Ficol-Paque Plus (Pharmacia). PBMCs were suspended at 2×10^6/mL in DMEM supplemented to contain 2% FCS, 10 mM, 0.3 mg/mL […], 100 U/mL penicillin G and […] streptomycin sulfate (complete media). Cells were plated into Falcon flat bottom, 96 well culture plates (200 μL/well) and cultured overnight at 37° C. and 6% CO2. Non-adherent cells were removed by washing with 200 μl/well of fresh medium. Wells containing adherent cells (˜70% monocytes) were replenished with 100 μL of fresh medium.
Preparation of Test Compound Stock Solutions
Test compounds were dissolved in […]. Compound stock solutions were prepared to an initial concentration of […]. Stocks were diluted initially to 20-200 μM in complete media. Nine two-fold serial dilutions of each compound were then prepared in complete medium.
Treatment of Cells with Test Compounds and Activation of TNF Production with Lipopolysaccharide
One hundred microliters of each test compound dilution were added to microtiter wells containing adherent monocytes and 100 μL complete medium. Monocytes were cultured with test compounds for 60 min at which time 25 μL of complete medium containing 30 ng/mL lipopolysaccharide from E. coli K532 were added to each well. Cells were cultured an additional 4 hrs. Culture supernatants were then removed and TNF presence in the supernatants was quantified using an ELISA.
Flat bottom, 96 well Corning High Binding ELISA plates were coated overnight (4° C.) with 150 μL/well of 3 μg/mL murine anti-human TNF-α MAb (R&D Systems #MAB210). Wells were then blocked for 1 h at room temperature with 200 μL/well of CaCl2-free ELISA buffer supplemented to contain 20 mg/mL BSA (standard ELISA buffer: […], 150 mM NaCl, 2 mM CaCl2, 0.15 mM thimerosal, pH 7.4). Plates were washed and replenished with 100 μL of test supernatants (diluted 1:3) or standards. Standards consisted of eleven 1.5-fold serial dilutions from a stock of 1 ng/mL recombinant human TNF (R&D Systems). Plates were incubated at room temperature for 1 h on orbital shaker (300 rpm), washed and replenished with 100 μL/well of 0.5 μg/mL goat anti-human TNF-α (R&D systems #AB-210-NA) biotinylated at a 4:1 ratio. Plates were incubated for 40 min, washed and replenished with 100 μL/well of alkaline phosphatase-conjugated streptavidin (Jackson ImmunoResearch #016-050-084) at 0.02 μg/mL. Plates were incubated 30 min, washed and replenished with 200 μL/well of 1 mg/mL of p-nitrophenyl phosphate. After 30 min, plates were read at 405 nm on a Vmax plate reader.

Assay [2] in a line: AA2734_IC50_IP (Table 4, assay code not explained). The settings on record: internal assay code.
A short description of assay [3]: AA5225_IC50_IP (Table 4, assay code not explained). Particulars: internal assay code.
In assay [4] the test system is THP1 cells (LPS-induced TNF-α secretion). In words: Lipopolysaccharide-activated THP1 cell TNF production assay. It is filed as cell-based. Particulars: Homo sapiens, THP-1. Here is the method:
Lipopolysaccharide-Activated THP1 Cell TNF Production Assay
THP1 cells are resuspended in fresh THP1 media (RPMI 1640, 10% heat-inactivated FBS, 1XPGS, 1XNEAA, plus 30 μM βME) at a concentration of 1E6/mL. One hundred microliters of cells per well are plated in a polystyrene 96-well tissue culture. One microgram per mL of bacterial LPS is prepared in THP1 media and is transferred to the wells. Test compounds are dissolved in 100% DMSO and are serially diluted 3-fold in a polypropylene 96-well microtiter plate (drug plate). HI control and LO control wells contain only DMSO. One microliter of test compound from the drug plate followed by 10 μL of LPS are transferred to the cell plate. The treated cells are induced to synthesize and secrete TNF-α at 37° C. for 3 h. Forty microliters of conditioned media are transferred to a 96-well polypropylene plate containing 110 μL of ECL buffer (50 mM Tris-HCl pH 8.0, 100 mM NaCl, 0.05% Tween 20, 0.05% NaN3 and 1% FBS) supplemented with 0.44 nM MAB610 monoclonal Ab (R&D Systems), 0.34 nM ruthenylated AF210NA polyclonal Ab (R&D Systems) and 44 μg/mL sheep anti-mouse M280 Dynabeads (Dynal). After a 2 h incubation at room temperature with shaking, the reaction is read on the ECL M8 Instrument (IGEN Inc.). A low voltage is applied to the ruthenylated TNF-α immune complexes, which in the presence of TPA (the active component in Origlo), results in a cyclical redox reaction generating light at […]. The amount of secreted TNF-α in the presence of compound compared with that in the presence of DMSO vehicle alone (HI control) is calculated using the formula: % control (POC)=(cpd−average LO)/(average HI−average LO)*100. Data (consisting of POC and inhibitor concentration in μM) is fitted to a 4-parameter equation (y=A+((B−A)/(1+((x/C)^D))), where A is the minimum y (POC) value, B is the maximum y (POC), C is the x (cpd concentration) at the point of inflection and D is the slope factor) using a Levenburg-Marquardt non-linear regression algorithm.

As for `Cc1ccc(C(=O)NC2CC2)cc1-c1ccc2c(-c3cc(F)c(S(C)(=O)=O)cc3C)nncc2c1` [Example 223, N-cyclopropyl-3-(1-(5-fluoro-2-methyl-4-(methylsulfonyl)phenyl)-6-phthalazinyl)-4-methylbenzamide], the figures for the IC50 in assay [1], in assay [2] and in assay [3] were ≤ 0.01 µM, 0.00122 µM and 0.000854 µM, respectively.
For `CC(C)Nc1nncc2cc(-c3cc(C(=O)NC4CC4)ccc3Cl)ccc12` [Example 23, 4-chloro-N-cyclopropyl-3-(1-((1-methylethyl)amino)-6-phthalazinyl)benzamide], the concentration for half-maximal inhibition (IC50) in assay [4] is ≤ 0.01 µM.
Same read-out and setting: in the case of `CC(C)Oc1nncc2cc(-c3cc(C(N)=O)ccc3Cl)ccc12` [Example 25, 4-chloro-3-(1-((1-methylethyl)oxy)-6-phthalazinyl)benzamide] it was ≤ 0.01 µM.
With `Cc1ccc(C(=O)Nc2ccnn2C)cc1-c1ccc2c(OCC(F)(F)F)nncc2c1` [Example 2, 4-Methyl-N-(1-methyl-1H-pyrazol-5-yl)-3-(1-(2,2,2-trifluoroethoxy)phthalazin-6-yl)benzamide], the IC50 in assay [4] is ≤ 0.01 µM.
Take `Cc1ccc(N)cc1-c1ccc2c(O[C@H](C)C(F)(F)F)nncc2c1` [Example 238, 4-methyl-3-(1-(((1R)-2,2,2-trifluoro-1-methylethyl)oxy)-6-phthalazinyl)aniline]: the IC50 in assay [1] was ≤ 0.25 µM.
Still for that read-out and setting: in the case of `Cc1ccc(C(=O)NC(C)C)cc1-c1ccc2c(C(C)C)nncc2c1` [Example 39, 4-methyl-N-(1-methylethyl)-3-(1-(1-methylethyl)-6-phthalazinyl)benzamide] it was ≤ 0.01 µM.
On the same count and under the same terms, in the case of `Cc1ccc(C(=O)NC2(C)CC2)cc1-c1ccc2c(N3CCC[C@@H]3C)nncc2c1` [Example 66, 4-methyl-N-(1-methylcyclopropyl)-3-(1-((2S)-2-methyl-1-pyrrolidinyl)-6-phthalazinyl)benzamide] it was ≤ 0.01 µM; in that of `Cc1ccc(C(=O)NC(C)C)cc1-c1ccc2c(N3CCC[C@H]3C)nncc2c1` [Example 37, 4-methyl-N-(1-methylethyl)-3-(1-((2R)-2-methyl-1-pyrrolidinyl)-6-phthalazinyl)benzamide], ≤ 0.01 µM.
Regarding `CCn1nccc1NC(=O)c1ccc(C)c(-c2ccc3c(NC(C)C)nncc3c2)c1` [Example 3, N-(1-Ethyl-1H-pyrazol-5-yl)-3-(1-(isopropylamino)phthalazin-6-yl)-4-methylbenzamide], the IC50 in assay [4] and in assay [1] was ≤ 0.01 µM throughout.
On to `Cc1ccc(C(=O)Nc2ccnn2C)cc1-c1ccc2c(-c3ccccc3C)nncc2c1` [Example 5, 4-methyl-N-(1-methyl-1H-pyrazol-5-yl)-3-(1-o-tolylphthalazin-6-yl)benzamide], for which the IC50 in assay [4] and in assay [1] was ≤ 0.01 µM throughout.
Regarding `Cc1ccc(C(N)=O)cc1-c1ccc2c(O[C@H](C)C(F)(F)F)nncc2c1` [Example 43, 4-methyl-3-(1-(((1R)-2,2,2-trifluoro-1-methylethyl)oxy)-6-phthalazinyl)benzamide], the IC50 in assay [1] is ≤ 0.1 µM.
For the compound `Cc1ccc(C(=O)Nc2ccn(C)n2)cc1-c1ccc2c(O[C@@H](C)C(F)(F)F)nncc2c1` [Example 72, 4-methyl-N-(1-methyl-1H-pyrazol-3-yl)-3-(1-(((1S)-2,2,2-trifluoro-1-methylethyl)oxy)-6-phthalazinyl)benzamide], the IC50 in assay [1] was ≤ 0.01 µM.
On to `CCC(C)c1nncc2cc(-c3cc(C(N)=O)ccc3C)ccc12` (centres unmarked) [Example 51, 4-methyl-3-(1-(1-methylpropyl)-6-phthalazinyl)benzamide], for which the IC50 in assay [1] is ≤ 0.01 µM.
For `Cc1ccc(C(=O)NC2CC2)cc1-c1ccc2c([C@H](C)C(F)(F)F)nncc2c1` [Example 227b, N-cyclopropyl-4-methyl-3-(1-((1S)-2,2,2-trifluoro-1-methylethyl)-6-phthalazinyl)benzamide], the IC50 was ≤ 0.01 µM in assay [1], 0.00033 µM in assay [2] and 0.00161 µM in assay [3].
In the case of `Cc1ccc(C(=O)Nc2ccon2)cc1-c1ccc2c(NC(C)C)nncc2c1` [Example 13, N-3-isoxazolyl-4-methyl-3-(1-((1-methylethyl)amino)-6-phthalazinyl)benzamide], the IC50 in assay [1] is ≤ 0.01 µM.
The same measure, in the same setting: to `Cc1ccc(C(=O)NCC(F)(F)F)cc1-c1ccc2c(NC(C)C)nncc2c1` [Example 29, 4-methyl-3-(1-((1-methylethyl)amino)-6-phthalazinyl)-N-(2,2,2-trifluoroethyl)benzamide] belongs ≤ 0.01 µM.
On to `Cc1ccc(C(=O)NC2CC2)cc1-c1ccc2c(OC(CF)CF)nncc2c1` [Example 49, N-cyclopropyl-3-(1-((2-fluoro-1-(fluoromethyl)ethyl)oxy)-6-phthalazinyl)-4-methylbenzamide], for which the IC50 in assay [4] is ≤ 0.1 µM.

By IC50 is commonly meant the midpoint of a concentration-inhibition curve. A lower IC50 goes with inhibition by little substance.
